In patent US20220265629A1, “TREATMENT OF SYSTOLIC DYSFUNCTION AND HEART FAILURE WITH REDUCED EJECTION FRACTION WITH THE COMPOUND (R)-4-(1-((3-(DIFLUOROMETHYL)-1-METHYL-1H-PYRAZOL-4-YL)SULFONYL)-1-FLUOROETHYL)-N-(ISOXAZOL-3-YL)PIPERIDINE-1-CARBOXAMIDE” (MyoKardia, Inc., priority 2019, published 2022):

Test system: patients with stable HFrEF
Assay: HFrEF study Part 1 (SAD Cohorts 1 and 2): safety (TEAEs, troponin, ECG, Holter)
Format: in vivo, human
Experimental: Safety and efficacy assessments were conducted by measuring patients' vital signs and laboratory parameters; performing TTE to measure, e.g., systolic ejection time; performing electrocardiograms (e.g., 12-lead ECG), real-time ECG telemetry (e.g., at least 3-lead), and Holter ECG; and measuring levels of troponin (e.g., troponin I and/or troponin T) and […].
The following safety laboratory parameters were measured: (1) hematology parameters (CBC, including differential count, and platelet count); (2) serum chemistry parameters (e.g., sodium, potassium, chloride, bicarbonate, calcium, magnesium, urea, creatinine, ALP, ALT, AST, total bilirubin, glucose, and CPK); and (3) urinalysis parameters (e.g., pH, protein, glucose, leukocyte esterase, and blood).
Abnormal and/or rising troponin values (as per investigator's judgment and taking into account potential baseline troponin elevation frequently observed in heart failure) led to the patient being clinically evaluated for possible myocardial ischemia. […] The entire clinical context (e.g., signs, symptoms, new ECG changes, new troponin, and CK-MB abnormalities) was evaluated and correlated with any other relevant clinical findings, patient's medical history, and laboratory data to determine the clinical significance of the findings. Troponin results performed on Day 2 of Part 1 (SAD) and Day 10 of Part 2 (MAD) at a local lab were reviewed prior to the patient being discharged the next day.

With `Cn1cc(S(=O)(=O)[C@@](C)(F)C2CCN(C(=O)Nc3ccon3)CC2)c(C(F)F)n1` [Compound I, (R)-4-(1-((3-(difluoromethyl)-1-methyl-1H-pyrazol-4-yl)sulfonyl)-1-fluoroethyl)-N-(isoxazol-3-yl)piperidine-1-carboxamide] the “TEAE Any SOC, any PT, %” value (175 mg (n = 8)) was “(25.0) %”, the “TEAE Dyspnea, %” value (175 mg (n = 8)) was “(12.5) %” and the “TEAE Fatigue, %” value (175 mg (n = 8)) was “(12.5) %”. For the same compound, the “TEAE Infusion site discomfort, %” value (175 mg (n = 8)) was “(12.5) %”, the “TEAE Urinary tract infection, %” value (175 mg (n = 8)) was “(12.5) %” and the “TEAE Any SOC, any PT, %” value (350 mg (n = 8)) was “(62.5) %”. For the same compound, the “TEAE Bursitis, %” value (350 mg (n = 8)) was “(12.5) %”, the “TEAE Diarrhoea, %” value (350 mg (n = 8)) was “(12.5) %” and the “TEAE Hypomagnesemia, %” value (350 mg (n = 8)) was “(12.5) %”. The “TEAE Oral contusion, %” value (350 mg (n = 8)) was “(12.5) %”, the “TEAE Proteinuria, %” value (350 mg (n = 8)) was “(12.5) %” and the “TEAE Anemia, %” value (400 mg Split Dose (n = 4)) was “(25.0) %”. For the same compound, the “TEAE Any SOC, any PT, %” value (400 mg Split Dose (n = 4)) was “(75.0) %”, the “TEAE Neck pain, %” value (400 mg Split Dose (n = 4)) was “(25.0) %” and the “TEAE Orthostatic hypotension, %” value (400 mg Split Dose (n = 4)) was “(25.0) %”. For the same compound, the “TEAE Ventricular extrasystoles, %” value (400 mg Split Dose (n = 4)) was “(25.0) %”, the “TEAE Any SOC, any PT, %” value (550 mg Split Dose (n = 2)) was “(50.0) %” and the “TEAE Cardiac discomfort, %” value (550 mg Split Dose (n = 2)) was 50.0%. The “TEAE Dyspnea, %” value (550 mg Split Dose (n = 2)) was “(50.0) %”, the “TEAE Troponin increase, %” value (550 mg Split Dose (n = 2)) was “(50.0) %” and the “maximum troponin I level (one subject)” value (550 mg, 24 hours post-dose, 4×ULN) was 0.12 ng/mL. For the same compound, the “TEAE Anemia, %” value (Total Active (n = 12)) was “(8.3) %”, the “TEAE Any SOC, any PT, %” value (Total Active (n = 12)) was “(83.3) %” and the “TEAE Bursitis, %” value (Total Active (n = 12)) was “(8.3) %”. For the same compound, the “TEAE Cardiac discomfort, %” value (Total Active (n = 12)) was “(8.3) %”, the “TEAE Diarrhoea, %” value (Total Active (n = 12)) was “(8.3) %” and the “TEAE Diverticulitis, %” value (Total Active (n = 12)) was “(8.3)- %”. The “TEAE Dyspnea, %” value (Total Active (n = 12)) was “(8.3) %”, the “TEAE Fatigue, %” value (Total Active (n = 12)) was “(8.3) %” and the “TEAE Hypomagnesemia, %” value (Total Active (n = 12)) was “(8.3) %”. The “TEAE Infusion site discomfort, %” value (Total Active (n = 12)) was “(8.3) %”, the “TEAE Neck pain, %” value (Total Active (n = 12)) was “(8.3) %” and the “TEAE Oral contusion, %” value (Total Active (n = 12)) was “(8.3) %”. The “TEAE Orthostatic hypotension, %” value (Total Active (n = 12)) was “(8.3) %”, the “TEAE Proteinuria, %” value (Total Active (n = 12)) was “(8.3) %” and the “TEAE Troponin increase, %” value (Total Active (n = 12)) was “(8.3) %”. The “TEAE Urinary tract infection, %” value (Total Active (n = 12)) was “(8.3) %”, the “TEAE Ventricular extrasystoles, %” value (Total Active (n = 12)) was “(8.3) %” and the “QTcF (study ECGs)” value (all patients) was “no signal for QTcF increase”. For the same compound, the “Holter monitoring: atrial ectopy, atrial fibrillation, ventricular ectopy, NSVT runs” value (compared to placebo) was “no signal”, the “active-treatment periods with transient troponin increase (3/30)” value (doses from 175 to 550 mg) was 10% and the “subjects with transient troponin increase (3/12)” value (doses from 175 to 550 mg) was 25%. For the same compound, the safety and tolerability (single-ascending doses 175 to 550 mg) was “safe and generally well-tolerated”.
